Legend:
[1] = system: NKX6.1-positive pancreatic endoderm cells derived from human iPS cells; test: Screening of senescence-related reagents; format: cell-based
Procedure: FIG. 2-A A schematic diagram illustrating senescence-related reagent screening. […] After the elapse of one week, the cells were counted under a fluorescence microscope. Cells were differentiated to a pancreatic endoderm cell level using a stepwise differentiation-inducing method, and were then re-seeded on a 24-well plate at 2×10^5/well. The following culture media were added to these cultured cells, and the cells were cultured for 1 week. […] After fixed using 4% PFA, the cells were subjected to β-gal staining and NKX6.1 antibody immunostaining, and fluorescently stained images were acquired using BZ-800 (Keyence). The number of NKX6.1-positive cells, the NKX6.1-positive ratio, and the β-gal-positive ratio were calculated using the BZ-[…]/Macro Cell Count function of that microscope. FIGS. 2-A and 3-A show the outline of this procedure. A reagent enabling proliferation of pancreatic endoderm cells derived from human iPS cells was searched for in the senescence-related reagents. […] Then, (1) the number of NKX6.1-positive cells, or (2) the ratio of NKX6.1-positive cells and the ratio of β gal-positive cells were measured after the culture. FIGS. 2-B to 2-D show the results.

[2] = system: pancreatic endoderm cells; test: α-SMA immunostaining at the third passage of expansion culture; format: cell-based; details: Y-27632 50 μM vs non-administration, FIG. 6
Procedure: FIG. 6 Images of pancreatic endoderm cells immunostained against α-SMA at the third passage of the pancreatic endoderm cells with or without the administration of Y-27632 (50 μM). The cells after the expansion culture were washed with PBS(−) twice, and were then fixed using 4% PFA at 4° C. for 20 minutes. The cells were blocked with a blocking solution (PBS(−) containing 5% donkey serum and 0.4% Triton X-100) at room temperature for 30 minutes. The cells were incubated in a primary antibody solution diluted with the blocking solution at 4° C. overnight. After the primary antibody solution was washed off, the cells were incubated at room temperature for 1 hour in a fluorescent secondary antibody solution diluted with the blocking solution. Fluorescently immunostained images were acquired using BZ-710 or BZ-800 (Keyence). A mechanism by which the expansion culture of pancreatic endoderm cells with Y-27632 was enabled was examined. It was shown that, at the third passage of the expansion culture, the number of α-SMA-positive cells increased in the Y-27632 non-administration group compared with the group to which Y-27632 at a concentration of 50 μM was administered (FIG. 6). That is to say, it was observed that fibrosis or epithelial-mesenchymal transition was suppressed by administering Y-27632 to the cells.

[3] = system: pancreatic endoderm cells derived from ES cells (KhES-3 line); test: Expansion culture of pancreatic endoderm cells derived from ES cells; format: cell-based, human
Procedure: PDX1^+/NKX6.1^+ pancreatic endoderm cells were produced from iPS cells (585A1 line) or ES cells (KhES-3 line) on a 6-well plate using the method by Toyoda et al. (Toyoda T, et al. Stem Cell Reports 2017). Briefly, the undifferentiated cells above were seeded at 1×10^6/well on a 6-well plate coated with iMatrix-511 silk. The cells were cultured in RPMI to which an S1 culture medium (1×B-27 Supplement, 100 U/ml penicillin/streptomycin, 100 ng/ml activin A, and CHIR99021 (Day 1: 3 μM, Days 2 and 3: 1 μM, and Day 4: 0 μM)) had been added for 4 days, in an S2 culture medium (improved MEM to which 0.5×B-27 Supplement, 100 U/ml penicillin/streptomycin, and 50 ng/ml KGF/FGF7 had been added) for 5 days, and in an S3 culture medium (improved MEM to which 0.5×B-27 Supplement, 100 U/ml penicillin/streptomycin, 50 ng/ml KGF/FGF7, 0.2 μM LDN-193189, 0.1 μM SANT-1, and 10 nM TTNPB had been added) for 2 days. The cells were detached from the 6-well plate using trypsin, and were reseeded on a 6-well plate coated with iMatrix-511 silk at 1.5×10^6/well using the S3 culture medium again. […] (5) The cells were suspended in improved MEM (containing 10 μM Y-27632, 0.5×B-27 Supplement, and 100 U/ml penicillin/streptomycin), and were counted. […]

## C[C@@H](N)[C@H]1CC[C@H](C(=O)Nc2ccncc2)CC1 [Y-27632]
[1]; 50 μM, 1 week, FIG. 2-C
  ratio of the pancreatic endoderm cells (NKX6.1-positive): most effective
[1]; 1 week, FIG. 2-D
  ratio of β gal-positive cells (senescent cells): exhibited an effect of reducing the ratio of β gal-positive cells
[1]; FIG. 2-B
  concentration most suitable for the proliferation: 50 µM
[1]; culture for 1 week, 24-well plate, FIG. 2-B
  number of NKX6.1-positive cells (pancreatic endoderm cells): significantly increased
[2]
  fibrosis or epithelial-mesenchymal transition (α-SMA-positive cells): suppressed
[3]; FIG. 4-H
  expansion culture of the pancreatic endoderm cells: similarly possible
[3]; Y-27632 10 μM, passaged 5 times (5 weeks), FIGS. 5-B and 5-C
  cell (nuclear) shape: changed their shape (elongated elliptical shape)

— US20260097083A1, “METHOD FOR PRODUCING PANCREATIC ENDODERM CELLS” (Kyoto University, priority 2022, published 2026)
